US20260374793A1, “MITOCHONDRIA SPECIFIC TRANSCRIPTION INHIBITORS” (LUNELLA BIOTECH, INC., priority 2023, published 2026)

Experiments:
[1] = test system: human cancer cell xenografts; details: oral; cited from earlier work
[2] = test system: mitochondrial RNA polymerase (POLRMT); details: as a POLRMT inhibitor; cited from earlier work
mice = details: oral; four-week trial in mice; cited from earlier work
MCF-7 cells [3] = experiment: Extracellular acidification rate (ECAR), glycolytic function, MCF-7; type: cell-based, human
Excerpt: FIGS. 7A-7D show glycolytic function, glycolysis, glycolytic capacity, and glycolytic reserve, respectively, for different concentrations of Compound [I] on MCF-7 cells.

MDA-MB-231 cells [4] = experiment: Chorio-allantoic membrane (CAM) assay in chicken eggs, tumor growth; type: in vivo; details: daily for 8 days; tumors weighed day E18; FIG. 8A
Experimental: The well-established chorio-allantoic membrane (CAM) assay in chicken eggs were used to quantitatively measure tumor growth in MDA-MB-231 cells. An inoculum of 1×10^6 MDA-MB-231 cells was added onto the Upper CAM of each egg on Day 9 and then eggs were then randomized into groups. On day 10, tumors were detectable and were then treated daily for 8 days with vehicle alone (1% DMSO in PBS), or Compound [I]. After 8 days of drug administration, on day E18, all tumors were weighed. […] Bar graphs are shown as the mean±SEM; t-test, two tailed test: * P<0.05, **** P<0.0001.

MCF-7 cells [5] = experiment: 3D anchorage independent growth (mammosphere formation) assay, MCF-7; type: cell-based, human
Excerpt: The following paragraphs summarize data for Compound [I]. It should be appreciated that preliminary results for other embodiments are consistent with the results for Compound [I], but analysis is ongoing. FIGS. 1A-1C show mammosphere formation results, SRB assay results on MCF-7 cells, and SRB assay results on BJ1-hTERT cells, for different concentrations of Compound [I]. The asterisks indicate P-value, with ** indicating P<0.01, *** indicating P<0.001, and **** indicating P <0.0001. […] FIGS. 1B and 1C show results of the SRB assay for (B) MCF-7 cells and (C) hTERT-BJ1 cells.
(§1) FIGS. 5A and 5B show IC50 curves for Compound [I] calculated using GraphPad Prism. The results are based on mammosphere formation assay of Compound [I] on both colonies and spheres, for MCF-7 cells (FIG. 5A), and for MDA-MB-231 cells (FIG. 5B).
(§2) 3D Anchorage Independent Growth Assay: This assay is also referred to as the mammosphere formation assay. A single-cell suspension was prepared using enzymatic, and manual disaggregation (25-g needle). Then, cells were plated at a density of 500 cells/cm^2 in mammosphere medium (DMEM-F12+1× B-27 Plus Supplement+20 ng/ml EGF+Pen/Strep) under non-adherent conditions, in culture dishes pre-coated with (2-hydroxyethylmethacrylate) (poly-HEMA, Sigma Aldrich Inc.), called “mammosphere plates.” Cells were grown for 5 days and maintained in a humidified incubator at 37 °C. After 5 days of culture, 3D-mammospheres >50 μm were counted using an eye piece (“graticule”), and the percentage of cells plated which formed spheres was calculated and is referred to as percent mammosphere formation, and was normalized to one (1=100% MFE). 3D mammosphere formation efficiency (MFE) was analyzed in both the ATP-low and ATP-high sub-populations of cells. All 3D mammosphere experiments were performed in triplicate, at least 3 times independently.

MDA-MB-231 cells [6] = experiment: 2D colony formation, MDA-MB-231; type: cell-based
Excerpt: FIGS. 4A and 4B show the effect of Compound [I] at different concentrations on MDA-MB-231 colony formation (A) representative phase images of 2D-colonies, and (B) expressed in terms of colony formation relative to the control. […] Bar graphs are shown as the mean±SEM; t-test, two-tailed test: **** P<0.0001.
as §1

MCF-7 cells [7] = experiment: 2D colony formation, MCF-7; type: cell-based, human
Excerpt: FIGS. 2A and 2B show the effect of Compound [I] at different concentrations on MCF-7 colony formation (A) in petri dishes, and (B) expressed in terms of colony formation relative to the control.
as §1

MDA-MB-231 cells [8] = experiment: 3D anchorage independent growth (mammosphere formation) assay, MDA-MB-231; type: cell-based
Experimental: Bar graphs are shown as the mean±SEM; t-test, two-tailed test: * P<0.05, ** P<0.01, **** P<0.0001.
as §1, §2

MCF-7 cells [9] = experiment: Seahorse XF96 oxygen consumption rate (OCR), mitochondrial respiration, MCF-7; type: cell-based, human
Experimental: FIGS. 6A-6D show mitochondrial respiration, basal respiration, maximal respiration, and ATP production, respectively, for different concentrations of Compound [I] on MCF-7 cells. The metabolic profile MCF-7 was performed using the Seahorse XF96 Analyzer after 6 days of treatment with Compound [I].

MDA-MB-231 cells [10] = experiment: CAM assay in chicken eggs, spontaneous tumor metastasis (qPCR of human Alu sequences); type: in vivo; details: daily for 8 days, Lower CAM, FIG. 8B
Experimental: The CAM assay was used in chicken eggs to quantitatively measure spontaneous tumor metastasis in MDA-MB-231 cells. An inoculum of 1×10^6 MDA-MB-231 cells was added onto the Upper CAM of each egg on Day 9 and then eggs were then randomized into groups. On day 10, tumors were detectable and they were then treated daily for 8 days, with vehicle alone (1% DMSO in PBS), or Compound [I]. After 8 days of drug administration, the Lower CAM was collected to evaluate the number of metastatic cells and analyzed by qPCR with specific primers for Human Alu sequences. […] Bar graph is shown as the mean±SEM; t-test, two tailed test: ns P >0.05, ** P <0.01.

chicken embryo = experiment: In vivo chicken embryo toxicity assessment (CAM assay)
MCF-7 cells [11] = experiment: SRB cell viability assay, MCF-7; type: cell-based; details: Homo sapiens, MCF7, cytotoxic starting at, FIG. 1B, read-out: concentration at which cytotoxicity starts
Excerpt: (§3) The mitochondria specific transcription inhibitor (MSTI) compounds disclosed herein represent a new class of compounds having exceptional selectivity and activity towards cancer cells. Embodiments of the MSTI compounds disclosed herein may be used as therapeutic agent to selectively eradicate CSCs for treating and/or preventing tumor recurrence and/or metastasis. […] This assay measures the amount of residual protein that adheres to tissue culture dishes and is a surrogate marker of cell viability.
(§4) Reagents and Model Cell Lines: It should be apparent that other cell lines may be used without departing from the present approach. The human breast adenocarcinoma cell line MCF-7 was from the American Type Culture Collection (ATCC). hTERT-BJ1 cells were from Clontech, Inc. MCF-7 and hTERT-BJ 1 cells were grown in DMEM supplemented with 10% fetal bovine serum, GlutaMAX and 1% penicillin-streptomycin and incubated at 37C in a humidified 5% C02 incubator. The medium was changed 2-3 times/week.
(§5) The present approach includes methods of confirming cell viability. Persons of skill in the art may select one or more methods for confirming cell viability suitable for the particular embodiment. […] Finally, the protein-bound dye was dissolved in a 10 mM Tris, pH 8.8 solution and read using the plate reader at 540-nm. […]

[12] = SRB cell viability assay, hTERT-BJ1; type: cell-based; details: human, hTERT-BJ1 cells, cytotoxic starting at about, FIG. 1C, read-out: concentration at which cytotoxicity starts
Excerpt: as §3, §4, §5

[13] = In vivo chicken embryo toxicity assessment (CAM assay); details: chicken, embryo

In the case of `C[C@@H](Oc1ccc2c(-c3ccc(F)cc3Cl)cc(=O)oc2c1)C(=O)N1CCC[C@H](C(=O)O)C1` [POLRMT inhibitor], the anti-tumor effects [1] is listed as “strong anti-tumor effects”, the “mitochondrial DNA expression” value [2] is listed as “inhibits mitochondrial DNA expression” and the “OXPHOS dysfunction or toxicity” value (mice) is listed as “no evidence of OXPHOS dysfunction or toxicity”.

For `CCN(CC(=O)NCCN(C)C)C(=O)[C@@H](C)Oc1ccc2c(-c3ccc(NC(=O)CCCCCCCCCCC[P+](c4ccccc4)(c4ccccc4)c4ccccc4)cc3Cl)cc(=O)oc2c1.[Cl-]` [Compound [I]], the glycolysis (MCF-7 cells [3]; FIG. 7B) was “No significant changes”, the glycolytic capacity (MCF-7 cells [3]; FIG. 7C) was “No significant changes” and the glycolytic reserve (MCF-7 cells [3]; FIG. 7D) was “No significant changes”. The “glycolysis (overall conclusion)” value (MCF-7 cells [3]; FIGS. 7A-7D) was “does not affect glycolysis”, the tumor growth (MDA-MB-231 cells [4]) was “potently inhibits tumor growth” and the “inhibition of MCF-7 spheres” value (MCF-7 cells [5]; 10 μM, FIG. 1A) was “near complete inhibition”. For the same molecule, the “inhibition of MCF-7 spheres” value (MCF-7 cells [5]; at all concentrations, FIG. 1A) was “inhibition of MCF-7 spheres at all concentrations”, the MDA-MB-231 colony formation (MDA-MB-231 cells [6]; 2D colonies, FIGS. 4A-4B, **** P<0.0001) was “significantly decreases” and the “effect on colony formation versus sphere formation” value (MDA-MB-231 cells [6]; MDA-MB-231, from IC50 values of Table 1) was “more effective on colony formation, as compared to sphere formation”. For the same molecule, the MCF-7 colony formation (MCF-7 cells [7]; 2D colonies, FIG. 2A) was “significantly decreased”, the “effect on colony formation versus sphere formation” value (MCF-7 cells [7]; MCF-7, from IC50 values of Table 1) was “more effective on colony formation, as compared to sphere formation” and the “MDA-MB-231 3D mammosphere formation” value (MDA-MB-231 cells [8]; FIG. 3A) was “significantly decreased”. For the same molecule, the “oxygen consumption rate (OCR)” value (MCF-7 cells [9]; 0.5 μM and 1 μM, after 6 days of treatment, FIG. 6A) was “reduction”, the basal respiration (MCF-7 cells [9]; 0.5 μM and 1 μM, after 6 days of treatment, FIG. 6B) was “decreases” and the maximal respiration (MCF-7 cells [9]; 0.5 μM and 1 μM, after 6 days of treatment, FIG. 6C) was “decreases”. For the same molecule, the ATP production (MCF-7 cells [9]; 0.5 μM and 1 μM, after 6 days of treatment, FIG. 6D) was “decreases”, the mitochondrial respiration (MCF-7 cells [9]; overall conclusion) was “specifically inhibits mitochondrial respiration” and the metastasis (MDA-MB-231 cells [10]) was “targets and prevent cancer metastasis”. It also gave an Alive (chicken embryo; 100 μM, of 17 embryos) of 17, a Dead (chicken embryo; 100 μM, of 17 embryos) of 0 and an Alive (chicken embryo; 250 μM, of 16 embryos) of 16. For the same molecule, the Dead (chicken embryo; 250 μM, of 16 embryos) was 0, the Alive (chicken embryo; 500 μM, of 16 embryos) was 14 and the Dead (chicken embryo; 500 μM, of 16 embryos) was 2. The “toxicity towards normal cells” value (chicken embryo; at concentrations several orders of magnitude above those with potent activity, FIG. 9) was “not toxic towards normal cells”.

`CCN(CC(=O)NCCN(C)C)C(=O)[C@@H](C)Oc1ccc2c(-c3ccc(NC(=O)CCCCCCCCCCC[P+](c4ccccc4)(c4ccccc4)c4ccccc4)cc3Cl)cc(=O)oc2c1.[Cl-]` [Compound [I], [12-[3-chloro-4-[7-[(1R)-2-[2-[2-(dimethylamino)ethylamino]-2-oxo-ethyl]-ethyl-amino]-1-methyl-2-oxo-ethoxy]-2-oxo-chromen-4-yl]anilino]-12-oxo-dodecyl]-triphenyl-phosphonium chloride] gave an MCC (MCF-7 cells [11]) of 1000 nM, an inhibition at 2.5 µM (MCF-7 cells [5]; Homo sapiens, MCF7, 2.5 μM, FIG. 1A, read-out: inhibition of MCF-7 spheres) of over 50% and an IC50 (MCF-7 cells [5]; Homo sapiens, MCF7, MCF-7 spheres, GraphPad Prism, FIG. 5A) of 3200 nM. The IC50 (MDA-MB-231 cells [6]; Homo sapiens, MDA-MB-231 colonies, GraphPad Prism, FIG. 5B) was 1500 nM, the MCC [12] was about 2500 nM and the IC50 (MCF-7 cells [7]; Homo sapiens, MCF7, MCF-7 colonies, GraphPad Prism, FIG. 5A) was 700 nM. It also gave an IC100 (MCF-7 cells [7]; Homo sapiens, MCF7, complete inhibition, FIG. 2B, read-out: concentration from which MCF-7 colony formation is completely inhibited) of 2.5 µM, an IC50 (MDA-MB-231 cells [8]; Homo sapiens, MDA-MB-231 spheres, GraphPad Prism, FIG. 5B) of 8200 nM and a survival at 100 µM ([13]; 100 μM, read-out: % Alive) of 100%. The mortality at 100 µM ([13]; 100 μM, read-out: % Dead) was 0%, the survival at 250 µM ([13]; 250 μM, read-out: % Alive) was 100% and the mortality at 250 µM ([13]; 250 μM, read-out: % Dead) was 0%. It also gave a survival at 500 µM ([13]; 500 μM, read-out: % Alive) of 87.5% and a mortality at 500 µM ([13]; 500 μM, read-out: % Dead) of 12.5%.
